Experimental findings from the OligoGym collection are described below.

HELM strings list units from the 5' end as sugar, base in round brackets, then linkage (d deoxyribose, r ribose, m 2'-O-methyl, p phosphodiester). Strings are as the collection lists them; they lack the last nucleoside at the 3' end of the tested compound. [moe] = 2'-O-(2-methoxyethyl) (MOE); [sp] = phosphorothioate linkage; [m5C] = 5-methylcytosine

This data set concerns the target UBE3A-ATS. In words: mouse, dose not given. The settings on record: ASO.

Turning to “RNA1{[moe](T)[sp].[moe](G)p.[moe](T)p.[moe](G)p.[moe](G)p.d(G)[sp].d([m5C])[sp].d([m5C])[sp].d(T)[sp].d([m5C])[sp].d(T)[sp].d(A)[sp].d(T)[sp].d(T)[sp].d(A)[sp].[moe](A)p.[moe](G)p.[moe](A)[sp].[moe](T)}$$$$ (last 3' nucleoside missing)”, the 3 h FOB score turned out to be 1 score 0-7. In turn, “RNA1{[moe](T)[sp].[moe](G)p.[moe](T)p.[moe](G)p.[moe](T)p.[moe](G)p.d(T)[sp].d(T)[sp].d(T)[sp].d(T)[sp].d(T)[sp].d([m5C])[sp].d([m5C])[sp].d(A)[sp].d(T)[sp].d(T)[sp].[moe](T)p.[moe](T)[sp].[moe](T)}$$$$ (last 3' nucleoside missing)” had a 3 h FOB score of 0 score 0-7. With “RNA1{[moe](T)[sp].[moe](G)p.[moe](T)p.[moe](G)p.[moe](T)p.[moe](T)p.d(T)[sp].d(T)[sp].d(T)[sp].d([m5C])[sp].d([m5C])[sp].d(A)[sp].d(T)[sp].d(T)[sp].d(T)[sp].d(T)[sp].[moe](T)p.[moe]([m5C])[sp].[moe](T)}$$$$ (last 3' nucleoside missing)”, the 3 h FOB score amounted to 0 score 0-7. Take “RNA1{[moe](T)[sp].[moe](G)p.[moe](T)p.[moe](G)p.[moe](T)p.d(G)[sp].d(T)[sp].d(T)[sp].d(T)[sp].d(T)[sp].d(T)[sp].d([m5C])[sp].d([m5C])[sp].d(A)[sp].d(T)[sp].[moe](T)p.[moe](T)p.[moe](T)[sp].[moe](T)}$$$$ (last 3' nucleoside missing)”: the 3 h FOB score came to 0 score 0-7.

“RNA1{[moe](T)[sp].[moe](G)p.[moe](T)p.[moe](G)p.[moe](T)p.d(T)[sp].d(T)[sp].d(T)[sp].d(T)[sp].d([m5C])[sp].d([m5C])[sp].d(A)[sp].d(T)[sp].d(T)[sp].d(T)[sp].[moe](T)p.[moe](T)p.[moe]([m5C])[sp].[moe](T)}$$$$ (last 3' nucleoside missing)”: the 3 h FOB score was 0 score 0-7.

Consider “RNA1{[moe](T)[sp].[moe](G)p.[moe](T)p.[moe](G)p.[moe]([m5C])[sp].d(A)[sp].d(T)[sp].d(A)[sp].d([m5C])[sp].d([m5C])[sp].d([m5C])[sp].d(A)[sp].d(G)[sp].[moe](G)p.[moe](G)p.[moe](T)[sp].[moe](A)}$$$$ (last 3' nucleoside missing)”, for which the 3 h FOB score is 1 score 0-7. In the case of “RNA1{[moe](T)[sp].[moe](G)p.[moe](T)p.[moe](G)p.[moe]([m5C])p.[moe](A)[sp].d(T)[sp].d(A)[sp].d([m5C])[sp].d([m5C])[sp].d([m5C])[sp].d(A)[sp].d(G)[sp].d(G)[sp].[moe](G)p.[moe](T)[sp].[moe](A)}$$$$ (last 3' nucleoside missing)” it was 1 score 0-7; in that of “RNA1{[moe](T)[sp].[moe](G)p.[moe](T)p.[moe](G)p.[moe]([m5C])p.[moe](A)p.d(T)[sp].d(A)[sp].d([m5C])[sp].d([m5C])[sp].d([m5C])[sp].d(A)[sp].d(G)[sp].d(G)[sp].d(G)[sp].d(T)[sp].[moe](A)p.[moe](G)[sp].[moe](G)}$$$$ (last 3' nucleoside missing)”, 0 score 0-7. “RNA1{[moe](T)[sp].[moe](G)p.[moe](T)p.[moe](G)p.[moe]([m5C])p.d(A)[sp].d(T)[sp].d(A)[sp].d([m5C])[sp].d([m5C])[sp].d([m5C])[sp].d(A)[sp].d(G)[sp].d(G)[sp].d(G)[sp].[moe](T)p.[moe](A)p.[moe](G)[sp].[moe](G)}$$$$ (last 3' nucleoside missing)” yielded a 3 h FOB score of 3 score 0-7. In the case of “RNA1{[moe](T)[sp].[moe](G)p.[moe](T)p.[moe](G)p.d(T)[sp].d(G)[sp].d(T)[sp].d(T)[sp].d(T)[sp].d(T)[sp].d(T)[sp].d([m5C])[sp].d([m5C])[sp].d(A)[sp].[moe](T)p.[moe](T)p.[moe](T)p.[moe](T)[sp].[moe](T)}$$$$ (last 3' nucleoside missing)” it was 1 score 0-7; in that of “RNA1{[moe](T)[sp].[moe](G)p.[moe](T)p.[moe](G)p.d(T)[sp].d(T)[sp].d(T)[sp].d(T)[sp].d(T)[sp].d([m5C])[sp].d([m5C])[sp].d(A)[sp].d(T)[sp].d(T)[sp].[moe](T)p.[moe](T)p.[moe](T)p.[moe]([m5C])[sp].[moe](T)}$$$$ (last 3' nucleoside missing)”, 1 score 0-7. “RNA1{[moe](T)[sp].[moe](G)p.[moe](T)p.[moe](G)p.d([m5C])[sp].d(A)[sp].d(T)[sp].d(A)[sp].d([m5C])[sp].d([m5C])[sp].d([m5C])[sp].d(A)[sp].d(G)[sp].d(G)[sp].[moe](G)p.[moe](T)p.[moe](A)p.[moe](G)[sp].[moe](G)}$$$$ (last 3' nucleoside missing)” registered a 3 h FOB score of 1 score 0-7.

In the case of “RNA1{[moe](T)[sp].[moe](G)p.[moe](T)p.[moe](T)p.[moe](G)p.d(T)[sp].d(A)[sp].d(T)[sp].d(G)[sp].d([m5C])[sp].d(A)[sp].d(G)[sp].d(G)[sp].d(T)[sp].d(T)[sp].[moe]([m5C])p.[moe](A)p.[moe](T)[sp].[moe]([m5C])}$$$$ (last 3' nucleoside missing)”, the 3 h FOB score turned out to be 4.5 score 0-7.

“RNA1{[moe](T)[sp].[moe](G)p.[moe](T)p.[moe]([m5C])p.[moe](G)p.d(A)[sp].d(G)[sp].d(A)[sp].d(A)[sp].d([m5C])[sp].d(T)[sp].d([m5C])[sp].d(A)[sp].d(A)[sp].d(A)[sp].[moe](A)p.[moe](G)p.[moe](G)[sp].[moe](T)}$$$$ (last 3' nucleoside missing)”: the 3 h FOB score turned out to be 4.5 score 0-7.

As to “RNA1{[moe](T)[sp].[moe](G)p.[moe](T)p.[moe]([m5C])p.[moe](T)p.d([m5C])[sp].d(T)[sp].d(A)[sp].d(A)[sp].d(T)[sp].d([m5C])[sp].d([m5C])[sp].d(T)[sp].d(A)[sp].d(T)[sp].[moe](T)p.[moe]([m5C])p.[moe]([m5C])[sp].[moe](A)}$$$$ (last 3' nucleoside missing)”, the 3 h FOB score was determined as 0 score 0-7. In the case of “RNA1{[moe](T)[sp].[moe](G)p.[moe]([m5C])p.[moe](A)[sp].d(T)[sp].d(A)[sp].d([m5C])[sp].d([m5C])[sp].d([m5C])[sp].d(A)[sp].d(G)[sp].d(G)[sp].[moe](G)p.[moe](T)p.[moe](A)p.[moe](G)[sp].[moe](G)}$$$$ (last 3' nucleoside missing)” it was 0 score 0-7; in that of “RNA1{[moe](T)[sp].[moe](G)p.[moe]([m5C])p.[moe](A)p.[moe](T)[sp].d(A)[sp].d([m5C])[sp].d([m5C])[sp].d([m5C])[sp].d(A)[sp].d(G)[sp].d(G)[sp].d(G)[sp].[moe](T)p.[moe](A)p.[moe](G)[sp].[moe](G)}$$$$ (last 3' nucleoside missing)”, 1 score 0-7.

In the case of “RNA1{[moe](T)[sp].[moe](G)p.[moe]([m5C])p.[moe](A)p.[moe](T)p.[moe](A)[sp].d([m5C])[sp].d([m5C])[sp].d([m5C])[sp].d(A)[sp].d(G)[sp].d(G)[sp].d(G)[sp].d(T)[sp].[moe](A)p.[moe](G)[sp].[moe](G)}$$$$ (last 3' nucleoside missing)”, the 3 h FOB score is 2 score 0-7. In turn, “RNA1{[moe](T)[sp].[moe](G)p.[moe]([m5C])p.[moe](A)p.[moe](T)p.[moe](A)p.d([m5C])[sp].d([m5C])[sp].d([m5C])[sp].d(A)[sp].d(G)[sp].d(G)[sp].d(G)[sp].d(T)[sp].d(A)[sp].d(G)[sp].[moe](G)p.[moe](A)[sp].[moe](T)}$$$$ (last 3' nucleoside missing)” returned a 3 h FOB score of 4 score 0-7.

Substance “RNA1{[moe](T)[sp].[moe](G)p.[moe]([m5C])p.[moe](A)p.[moe](T)p.d(A)[sp].d(A)[sp].d(A)[sp].d(G)[sp].d([m5C])[sp].d([m5C])[sp].d(A)[sp].d(G)[sp].d(G)[sp].d([m5C])[sp].[moe]([m5C])p.[moe](A)p.[moe](G)[sp].[moe](G)}$$$$ (last 3' nucleoside missing)” registered a 3 h FOB score of 2.2 score 0-7.

As for “RNA1{[moe](T)[sp].[moe](G)p.[moe]([m5C])p.[moe](A)p.[moe](T)p.d(A)[sp].d([m5C])[sp].d([m5C])[sp].d([m5C])[sp].d(A)[sp].d(G)[sp].d(G)[sp].d(G)[sp].d(T)[sp].d(A)[sp].[moe](G)p.[moe](G)p.[moe](A)[sp].[moe](T)}$$$$ (last 3' nucleoside missing)”, the 3 h FOB score stood at 2 score 0-7. “RNA1{[moe](T)[sp].[moe](G)p.[moe]([m5C])p.[moe](A)p.[moe](T)p.d(G)[sp].d(T)[sp].d(G)[sp].d(G)[sp].d(G)[sp].d([m5C])[sp].d([m5C])[sp].d(T)[sp].d([m5C])[sp].d(T)[sp].[moe](A)p.[moe](T)p.[moe](T)[sp].[moe](A)}$$$$ (last 3' nucleoside missing)” displayed a 3 h FOB score of 4 score 0-7. The substance “RNA1{[moe](T)[sp].[moe](G)p.[moe]([m5C])p.[moe](A)p.d(T)[sp].d(A)[sp].d([m5C])[sp].d([m5C])[sp].d([m5C])[sp].d(A)[sp].d(G)[sp].d(G)[sp].d(G)[sp].d(T)[sp].[moe](A)p.[moe](G)p.[moe](G)p.[moe](A)[sp].[moe](T)}$$$$ (last 3' nucleoside missing)” came in with a 3 h FOB score of 1 score 0-7. Regarding “RNA1{[moe](T)[sp].[moe](G)p.[moe]([m5C])p.[moe](T)[sp].d(T)[sp].d([m5C])[sp].d(A)[sp].d([m5C])[sp].d([m5C])[sp].d(A)[sp].d(T)[sp].d(T)[sp].[moe](T)p.[moe](T)p.[moe](G)p.[moe](A)[sp].[moe]([m5C])}$$$$ (last 3' nucleoside missing)”, the 3 h FOB score was found to be 0 score 0-7. In the case of “RNA1{[moe](T)[sp].[moe](G)p.[moe]([m5C])p.[moe](T)[sp].d([m5C])[sp].d(A)[sp].d(G)[sp].d(T)[sp].d(T)[sp].d(A)[sp].d(G)[sp].d(G)[sp].[moe](T)p.[moe](T)p.[moe](A)p.[moe](G)[sp].[moe](T)}$$$$ (last 3' nucleoside missing)”, the 3 h FOB score is 7 score 0-7. In the case of “RNA1{[moe](T)[sp].[moe](G)p.[moe]([m5C])p.[moe](T)p.[moe](G)p.[moe](A)p.d(T)[sp].d([m5C])[sp].d(A)[sp].d([m5C])[sp].d(A)[sp].d(T)[sp].d(T)[sp].d(A)[sp].d([m5C])[sp].d([m5C])[sp].[moe]([m5C])p.[moe](A)[sp].[moe](T)}$$$$ (last 3' nucleoside missing)”, the 3 h FOB score was 1 score 0-7.
